Data taken from PubChem BioAssay (NCI).
“And” between values parts separate entries of the source, which are not always exact repeats. Equal values may be shown once.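 Compound exposure: 48 hours, 5 concentrations, 96-well plates. At the GI50, growth is halved. TGI is the concentration that stops growth completely.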

How the values were obtained:
Test in all cases: growth of human tumour cells (NCI), 48 h
CAKI-1 renal = tested on: CAKI-1 renal
HL-60(TB) leukemia = tested on: HL-60(TB) leukemia
IGROV1 ovarian = tested on: IGROV1 ovarian
M14 melanoma = tested on: M14 melanoma
NCI-H460 lung = tested on: NCI-H460 lung
OVCAR-4 ovarian = tested on: OVCAR-4 ovarian
SF-268 CNS = tested on: SF-268 CNS
SF-295 CNS = tested on: SF-295 CNS
SF-539 CNS = tested on: SF-539 CNS
UACC-62 melanoma = tested on: UACC-62 melanoma

Compound	GI50 (CAKI-1 renal)	TGI (CAKI-1 renal)	GI50 (HL-60(TB) leukemia)	TGI (HL-60(TB) leukemia)	GI50 (IGROV1 ovarian)	TGI (IGROV1 ovarian)	GI50 (M14 melanoma)	TGI (M14 melanoma)	GI50 (NCI-H460 lung)	TGI (NCI-H460 lung)	GI50 (OVCAR-4 ovarian)	TGI (OVCAR-4 ovarian)	GI50 (SF-268 CNS)	TGI (SF-268 CNS)	GI50 (SF-295 CNS)	TGI (SF-295 CNS)	GI50 (SF-539 CNS)	TGI (SF-539 CNS)	GI50 (UACC-62 melanoma)	TGI (UACC-62 melanoma)
COc1ccc2c(c1)CCC1C2CC[C@@]2(C)C1CC1=CC(COC(C)=O)C3C(=O)c4ccccc4C(=O)C3C12 (stereo not given in full)	> 100 µM	> 100 µM	76.3 µM	> 100 µM	> 100 µM	> 100 µM	> 100 µM	> 100 µM	> 100 µM	> 100 µM	> 100 µM	> 100 µM	> 100 µM	> 100 µM	> 100 µM	> 100 µM	> 100 µM	> 100 µM	47.3 µM	> 100 µM
O=c1c2ccccc2[se]n1-c1cccnc1	–	> 100 µM	–	91.5 µM	–	46.7 µM	–	83.7 µM	–	> 100 µM	–	> 100 µM	–	70.6 µM	–	> 100 µM	–	56.5 µM	–	37.1 µM
CNCCNc1c2c(c(NCCNC)c3c(CN(C)C)c[nH]c13)C(=O)c1ccccc1C2=O	4.71 µM	16.8 µM	4.14 µM	> 100 µM	0.933 µM	12.9 µM	5.58 µM	15.5 µM	1.46 µM	11.2 µM	4.79 µM	17.5 µM	1.3 µM	9.21 µM	1.59 µM	9.16 µM	4.46 µM	17.1 µM	2.78 µM	19.7 µM
CC(=O)OC1Oc2ccccc2-c2oc(=O)c(-c3cc(=O)oc4cc(O)ccc34)cc21 (stereo not given)	21.7 µM	83.7 µM	21.8 µM	> 100 µM	20.8 µM	83.6 µM	26.7 µM	83.9 µM	21.5 µM	73.7 µM	25 µM	> 100 µM	26.2 µM	80.3 µM	8.74 µM	25.2 µM	17.4 µM	38.2 µM	18.8 µM	39 µM
O=C1CCCC/C(=C/c2ccccc2)N1	–	> 100 µM	–	> 100 µM	–	> 100 µM	–	> 100 µM	–	> 100 µM	–	> 100 µM	–	> 100 µM	–	> 100 µM	–	> 100 µM	–	> 100 µM
CC[C@]12C=CCN3CC[C@@]4(c5ccc(OC)cc5N(C)[C@H]4[C@@](O)(C(=O)OC)[C@@H]1OC(=O)CCC[P+](c1ccccc1)(c1ccccc1)c1ccccc1)[C@@H]32	4.67 µM and 2.8 µM	12.3 µM and 10.4 µM	0.203 µM and 0.195 µM	0.76 µM and 0.518 µM	0.235 µM and 0.394 µM	0.923 µM and 1.61 µM	0.762 µM and 1.05 µM	2.93 µM and 2.85 µM	1.38 µM and 1.31 µM	5.82 µM and 11 µM	0.317 µM and 0.322 µM	6.1 µM and 2.32 µM	0.933 µM and 0.455 µM	6.84 µM and 2.65 µM	1.49 µM and 2.22 µM	4.66 µM and 5.65 µM	0.648 µM and 0.769 µM	5.78 µM and 4.78 µM	0.3 µM and 0.379 µM	0.964 µM and 1.42 µM
Oc1[nH]c2ccccc2c1N=Nc1ccccc1Cl	–	61.2 µM	–	> 100 µM	–	> 100 µM	–	> 100 µM	–	> 100 µM	–	14.6 µM	–	> 100 µM	–	> 100 µM	–	> 100 µM	–	> 100 µM
COC(=O)/C=C/c1cc(O)c2oc(-c3ccc(O)c(O)c3)c(C(=O)OC)c2c1	1.42 µM	15 µM	0.14 µM	1.52 µM	0.543 µM	11.5 µM	0.0698 µM	9.39 µM	2.66 µM	18.1 µM	0.901 µM	12 µM	1.52 µM	12.5 µM	3.13 µM	11.7 µM	0.159 µM	1.96 µM	0.802 µM	5.96 µM
Oc1ccc(Cl)cc1Cc1cc(Cl)cc(Cl)c1O	7.86 µM	35.9 µM	4.64 µM	28.6 µM	6.31 µM	28.9 µM	4.61 µM	23 µM	3.22 µM	13.2 µM	3.48 µM	23.3 µM	3.82 µM	57.9 µM	6.66 µM	57.5 µM	2.33 µM	6.65 µM	4.55 µM	18.8 µM
CCCCOC(=O)C1C(c2ccc(Cl)cc2)NC(c2ccc(Cl)cc2)C(C(=O)OCCCC)S1(=O)=O (stereo not given)	–	> 100 µM	–	> 100 µM	–	> 100 µM	–	> 100 µM	–	> 100 µM	–	> 100 µM	–	> 100 µM	–	> 100 µM	–	> 100 µM	–	> 100 µM
COC(=O)C1=C(c2ccc3c(c2)OCO3)O[C@H](c2cc(OC)c(OC)c(OC)c2)[C@H]1COC(C)=O	–	66.8 µM	–	32.5 µM	–	81 µM	–	13.6 µM	–	> 100 µM	–	> 100 µM	–	> 100 µM	–	11.4 µM	–	6.91 µM	–	47.6 µM
CC(C)(C)C(=O)OCOP(=O)(OCOC(=O)C(C)(C)C)C1CCCN(O)C1=O (stereo not given)	0.324 µM	> 100 µM	0.538 µM	3.53 µM	0.393 µM	2.73 µM	0.693 µM	14.1 µM	0.561 µM	12.9 µM	0.508 µM	59.7 µM	0.441 µM	20.2 µM	3.9 µM	> 100 µM	1.52 µM	11.8 µM	0.318 µM	2.1 µM
COC(=O)C12C3C4C1C1C2C3C41C(=O)OC(C)(C)C (stereo not given)	–	> 100 µM	–	> 100 µM	–	> 100 µM	–	> 100 µM	–	> 100 µM	–	> 100 µM	–	> 100 µM	–	> 100 µM	–	> 100 µM	–	> 100 µM
CC(C)c1ccc(Nc2ccc3c(OCCCN4CCN(C)CC4)cccc3n2)cc1	12.6 µM	28.8 µM	10.5 µM	28.8 µM	16.1 µM	32.6 µM	2.85 µM	10.4 µM	5.44 µM	18 µM	13.9 µM	28.5 µM	12.2 µM	27.4 µM	3.63 µM	15.3 µM	11.1 µM	30 µM	2.17 µM	4.86 µM
CC1OC(n2cc(F)c(=O)[nH]c2=O)C=CC1O (stereo not given)	–	> 100 µM	–	> 100 µM	–	> 100 µM	–	> 100 µM	–	> 100 µM	–	> 100 µM	–	> 100 µM	–	> 100 µM	–	> 100 µM	–	> 100 µM
O=C1c2ccccc2C2(Br)C(=O)c3ccccc3C12 (stereo not given)	–	> 100 µM	–	> 100 µM	–	> 100 µM	–	> 100 µM	–	> 100 µM	–	> 100 µM	–	> 100 µM	–	> 100 µM	–	> 100 µM	–	> 100 µM
